Assay results from patent publication EP2197879B1, “C7-SUBSTITUTED CAMPTOTHECIN ANALOGS” (priority 2007, dated 2009).
Where two headings read alike, the source gives them in different places.

Key:
[1] = tested on: A2780/DX5 cells; assay: Sulforhodamine B (SRB) cytotoxicity assay in A2780/DX5 cells; assay type: cell-based; settings: for IC50 Ratio: A2780/DX5 versus A2780/WT
Method: (§1) Each of the testing conditions used in this study in both A2780/WT (wild-type) and A2780/DX5 cells were repeated in five to fifteen experiments that were performed on separate days. Each experiment consisted of one microtiter plate with at least eight individual assays of a given drug treatment condition on the plate. The sulforhodamine B (SRB) assay was used to assess cytotoxicity and absorbance at 570 nm (A570) in order to calculate the percentage of cell control (or percent cell survival) for the various treatment conditions in the plate wells.
(§2) Roswell Park Memorial Institute (RPMI 1640) medium, fetal bovine serum (FBS), and L-glutamine were purchased from Gibco BRL. Drugs were dissolved in sterile dimethylsulfoxide (DMSO), from American Type Culture Collection (ATCC) for stock solutions (2.5 to 5.0 mM). Subsequent dilutions were made using cell culture medium (prior to adding the drug to cells). SRB was purchased from Sigma and dissolved in 1.0 percent acetic acid. Trichloroacetic acid was purchased from VWR International.
(§3) Cells were manipulated in a Class IIA/B3 Biological Safety Cabinet (Forma Scientific) and maintained at 37°C in a humidified atmosphere containing 5% CO2 in a water-jacketed cell culture incubator (Forma Scientific). Cells were counted using a Coulter-Z1 counter (Beckman-Coulter). Following drug treatment, plates were washed using a Biomek 2000 station (Beckman) and, following exposure to SRB dye, plates were washed using an automated plate washer (Model EL404, Bio-Tek Instruments). Percentage of control was correlated to A570 values and determined using a Model EL800 plate reader (Bio-Tek Instruments).
(§4) Population doubling times for the two cell lines used in this study encompassed a total of five cell doublings corresponding to approximately 5 days for A2780/WT and A2780/DX5 cells. A2780/WT and A2780/DX5 cells were cultured in RPMI 1640 medium supplemented with 10% fetal bovine serum and 1 mM of L-glutamine. Both cell lines were maintained as monolayered cultures in T-25 or T-75 flasks and then seeded to microtiter plate wells for experiments described herein. Prior to SRB assays, cell viability was monitored by evaluation of microtiter plate wells. Dead cells detach and float while living cells remain attached to the bottom of the cell well.
(§5) The sulforhodamine B (SRB) cytotoxicity assay (see, Skehan P, et al., New colorimetric cytotoxicity assay for anticancer-drug screening. J. Natl. Cancer Inst. 82:1107-1112 (1990)) was used to determine the cytotoxic effects of BNP1350, SN-38, topotecan, 9-NH2-CPT, and 9-NO2-CPT on cell growth in vitro. Briefly, after the medium was aspirated from individual plate wells, trichloroacetic acid (100 µL of 10.0% solution) was added to each well, and the plates were incubated at 4°C for at least 1 hour. The plates were washed five-times with water using an automated microplate washer (Model EL 404, Bio-Tek Instruments), SRB solution (100 µL of 0.4 grams SRB dissolved in 100 mL 1.0 percent acetic acid) was added, and plates remained at room temperature for 15 minutes. The plates were then washed five-times using acetic acid (1.0%), air dried, and bound dye was solubilized in Tris base (150 µL, 10 mM). Plates were agitated (gently) for 5 minutes and the absorbance values of the SRB dye-protein adduct at a 570 nm wavelength (A570) were determined using an automated microtiter plate reader equipped with an A570 filter (Model EL800, BioTek Instruments). Table VII. Summary of Cytotoxicity Experiments in A2780/WT and DX5 Cells

[2] = tested on: A2780/WT (wild-type) cells; assay: Sulforhodamine B (SRB) cytotoxicity assay in A2780/WT cells; assay type: cell-based
Method: as §1, §2, §3, §4, §5

[3] = tested on: human plasma proteins
[4] = Homo sapiens, A2780, read-out: A2780/ DX5 (IC50)
[5] = Homo sapiens, A2780, read-out: A2780/ WT (IC50)
[6] = 100 nM Compound Concentrations, 48 hours or longer at room temperature
[7] = Homo sapiens, SRB assay, A2780/DX5 cells, read-out: A2780/ DX5 (IC50)
[8] = Homo sapiens, SRB assay, A2780/WT cells, read-out: A2780/ WT (IC50)
[9] = SRB assay, A2780/DX5 cells, read-out: A2780/ DX5 (IC50)
[10] = SRB assay, A2780/WT cells, read-out: A2780/ WT (IC50)

| Structure (SMILES) | IC50 Ratio [1] | Percent of Free Camptothecin Analogs in Human Plasma [3, 6] [%] | IC50 [1, 7] [nM] | IC50 [2, 8] [nM] | other results |
| --- | --- | --- | --- | --- | --- |
| CC[C@@]1(O)C(=O)OCc2c1cc1n(c2=O)Cc2c-1nc1ccccc1c2CC[Si](C)(C)CCl [Compound 3, 11-(4S)-[2-(chloromethyldimethylsilanyl)-ethyl]-4-ethyl-4-hydroxy-1,12-dihydro-4H-2-oxa-6,12a-diaza-dibenzo[b,h]fluorene-3,13-dione] | 1.45 | 1 |  |  | IC50 [1, 4]: 14.5 nM; IC50 [2, 5]: 10 nM |
| CC[C@@]1(O)C(=O)OCc2c1cc1n(c2=O)Cc2c-1nc1ccccc1c2CC[Si](C)(C)COC(C)=O [Compound 6, acetic acid-(4S)-{[2-(4-ethyl-4-hydroxy-3,13-dioxo-3,4,12,13-tetrahydro-1H-2-oxa-6,12a-diaza-dibenzo[b,h]fluoren-11-yl)-ethyl]-dimethylsilanyl}-methyl ester] | 2.27 |  | 21.1 | 9.3 | Percent of Free Camptothecin Analogs in Human Plasma ([3]; human, 100 nM): 5% |
| CC[C@@]1(O)C(=O)OCc2c1cc1n(c2=O)Cc2c-1nc1ccccc1c2CC[Si](C)(C)CCCO [Compound 10, 4S-4-ethyl-4-hydroxy-11-{2-[(3-hydroxypropyl)-dimethylsilanyl]-ethyl}-1,12-dihydro-4H-2-oxa-6,12a-diaza-dibenzo[b,h]fluorene-3,13-dione] | 3.68 | 3.4 |  |  | IC50 [1, 9]: 35.3 nM; IC50 [2, 10]: 9.6 nM |
| CC[C@@]1(O)C(=O)OCc2c1cc1n(c2=O)Cc2c-1nc1ccccc1c2CC[Si](C)(C)Cn1cncn1 [Compound 30, (4S)-11-[2-(dimethyl-[1,2,4]triazol-1-ylmethylsilanyl)-ethyl]-4-ethyl-4-hydroxy-1,12-dihydro-4H-2-oxa-6,12a-diaza-dibenzo[b,h]fluorene-3,13-dione] | 7.8 |  | 60.4 |  | IC50 [2, 5]: 7.7 nM; Percent of Free Camptothecin Analogs in Human Plasma ([3]; human, 100 nM): 8% |
| CCC1(O)C(=O)OCc2c1cc1n(c2=O)Cc2c-1nc1ccccc1c2CC[Si](C)(C)CCC(=O)NC(CCC(=O)OCc1ccccc1)C(=O)OCc1ccccc1 (stereo not drawn) [Compound 49, 2-(3-{[2-(4-Ethyl-4-hydroxy-3, 13-dioxo-3,4, 12, 13-tetrahydro-1H-2-oxa-6,12a-diaza-dibenzo[b,h]fluoren-11-yl)-ethyl]-dimethyl-silanyl}-propionylamino)-pentanedioic acid dibenzyl ester] |  |  | > 2000 | > 2000 |  |
| CCC1(O)C(=O)OCc2c1cc1n(c2=O)Cc2c-1nc1ccccc1c2CC[Si](C)(C)CCC(=O)NC(CCC(=O)O)C(=O)O (stereo not drawn) [Compound 50, 2-(3-{[2-(4-Ethyl-4-hydroxy-3, 13-dioxo-3,4, 12, 13-tetrahydro-1H-2-oxa-6, 12a-diaza-dibenzo[b,h]fluoren-11-yl)-ethyl]-dimethyl-silanyl}-propionylamino)-pentanedioic add] | 1699.3 |  |  |  | IC50 [1, 9]: > 2000 nM; IC50 [2, 10]: 1700 nM |
| CC[C@@]1(O)C(=O)OCc2c1cc1n(c2=O)Cc2c-1nc1ccccc1c2CC[Si](C)(C)CCCOC(=O)c1ccccc1 [Compound 55, Benzoic acid 3-{[2-(4-ethyl-4-hydroxy-3,13-dioxo-3,4, 12, 13-tetrahydro-1H-2-oxa-6,12a-diaza-dibenzo[b,h]fluoren-11-yl)-ethyl]-dimethylsilanyl}-propyl ester] | 4.6 |  | 112 | 24 |  |
| CC[C@@]1(O)C(=O)OCc2c1cc1n(c2=O)Cc2c-1nc1ccccc1c2CC[Si](C)(C)CCCOC(=O)c1ccco1 [Compound 57, Furan-2-carboxylic acid 3-{[2-(4-ethyl-4-hydroxy-3,13-dioxo-3,4, 12, 13-tetrahydro-1H-2-oxa-6,12a-diaza-dibenzo[b,h]fluoren-11-yl)-ethyl]-dimethyl-silanyl}-propyl ester] | 2.4 |  | 29.2 | 12.3 |  |
| CC[C@@]1(O)C(=O)OCc2c1cc1n(c2=O)Cc2c-1nc1ccccc1c2CC[Si](C)(C)CCCOC(C)=O [Compound 60, Acetic acid 3-{[2-(4-ethyl-4-hydroxy-3,13-dioxo-3,4, 12, 13-tetrahydro-1H-2-oxa-6,12a-diaza-dibenzo[b,h]fluoren-11-yl)-ethyl]-dimethyl-silanyl}-propyl ester] | 3 |  | 32.1 | 10.6 |  |
| CCC1(O)C(=O)OCc2c1cc1n(c2=O)Cc2c-1nc1ccccc1c2CC[Si](C)(C)CCCOC(=O)C1CCC1 (stereo not drawn) [Compound 62, Cyclobutanecarboxylic acid 3-{[2-(4-ethyl-4-hydroxy-3, 13-dioxo-3,4, 12, 13-tetrahvdro-1H-2-oxa-6,12a-diaza-dibenzo[b,h]fluoren-11-yl)-ethyl]-dimethyl-silanyl}-propyl ester] | 3.77 |  |  |  | IC50 [1, 9]: 39.2 nM; IC50 [2, 10]: 10.4 nM |
| CCC1(O)C(=O)OCc2c1cc1n(c2=O)Cc2c-1nc1ccccc1c2CC[Si](C)(C)CCCOC(=O)C1=CCNO1 (stereo not drawn) [Compound 64, 2,3-Dihydro-isoxazole-5-carboxylic acid 3-{[2-(4-ethyl-4-hydroxy-3,13-dioxo-3,4,12,13-tetrahydro-1H-2-oxa-6,12a-diaza-dibenzo[b,h]fluoren-11-yl)-ethyl]-dimethyl-silanyl}-propyl ester] | 4.27 |  |  |  | IC50 [1, 4]: 59.8 nM; IC50 [2, 5]: 14 nM |
| CCc1c2c(nc3ccccc13)-c1cc3c(c(=O)n1C2)COC(=O)[C@]3(O)CC [SN-22] |  | 1 |  |  |  |
| CCc1c2c(nc3ccc(O)cc13)-c1cc3c(c(=O)n1C2)COC(=O)[C@]3(O)CC [SN-38, 10-hydroxy-7-ethyl camptothecin] |  | 15 |  |  |  |
| CC[C@@]1(O)C(=O)OCc2c1cc1n(c2=O)Cc2cc3c(CN(C)C)c(O)ccc3nc2-1 [Topotecan, 9-dimethylaminomethyl-10-hydroxy camptothecin] |  | 100 |  |  |  |
